The values below come from publication PMC11413853, “Discovery of VU6007496: Challenges in the Development of an M1 Positive Allosteric Modulator Backup Candidate” (ACS Chemical Neuroscience, 2024).

The test system of one data set is Endothelin ETA. The data set is described as follows: Eurofins radioligand binding. Set-up: species or system Human. The conditions noted are these: specific binding.
A further data set relates to Adrenergic α1D. Description: Eurofins radioligand binding. Set-up: species or system Human. The conditions noted are these: specific binding.
The next data set has as its system Dopamine D1. The data set is described as follows: Eurofins radioligand binding. More on the design: species or system Human. The following applies: specific binding.
The test system of another data set is Histamine H2. Description: Eurofins radioligand binding. Set-up: species or system Human. The following applies: specific binding.
A short description of another data set: MET ID in rat liver S9. Format: in vitro ADME. The following applies: based on MS peak areas. The text has this: Eight oxidative metabolites were identified, with the major metabolite in both rat and human being Metabolite A (VU6036463, 24), the result of oxidative N-demethylation of the southern pyrazole (Scheme 4). The majority of other oxidative metabolism occurred on the tetrahydropyran moiety and included ring opening, but there was no amide hydrolysis observed.[21]

A further data set concerns Adrenergic α1A. Description: Eurofins radioligand binding. More on the design: species or system Human. The following applies: specific binding.
For the next data set, the target named is Glutamate, NMDA, Glycine (Rattus norvegicus, UniProt P35439). Description: Eurofins radioligand binding. The following applies: specific binding.
For data set [1], the system named is 68 GPCRs, ion channels and transporters. Description: Lead Profiling Screen, radioligand displacement (panel summary). The format is binding. The following applies: 10 μM; all 68 targets. The protocol:
In a 4-strain Ames assay, with and without S9, both 11 and 12 were negative.
Table S1. Eurofins Lead Profiling Screen Data
This is a radioligand binding panel of 67 targets including GPCRs, ion channels, transporters and nuclear hormones. Biochemical assay results are presented as the percent inhibition of specific binding at a 10 μM concentration of VU6007496 (Compound 11).
Target/Protein Species % Inhibition at
Androgen (Testosterone) Human -24
Calcium Channel L-Type, Rat 12
Calcium Channel L-Type, Rat -8
Calcium Channel N-Type Rat 8
Epidermal Growth Factor (EGF) Human 5
GABAA, Flunitrazepam, Central Rat -3
GABAA, Muscimol, Central Rat -1
Glutamate, Kainate Rat -19
Glutamate, NMDA, Agonism Rat 0
Glutamate, NMDA, Glycine Rat 0
Glutamate, NMDA, Phencyclidine Rat 7
Imidazoline I2, Central Rat -9

For a further data set, the system named is Tachykinin NK1. Description: Eurofins radioligand binding. Set-up: species or system Human. The following applies: specific binding.
A further data set concerns Neuropeptide Y Y1. Description: Eurofins radioligand binding. The conditions noted are these: specific binding. Set-up: species or system Human.
Data set [2] can be described thus: Rat satellite PK study, 3 mg/kg p.o. The format is in vivo. The following applies: 3 mg/kg p.o. (NOR MED). An excerpt: Historically, our PK/PD for M1 PAMs in NOR has a strong correlation with total brain as opposed to unbound levels, with MEDs typically 0.25 to 0.4 of the rat EC50.[21] This may be due to higher endogenous cholinergic tone in healthy animals, and the in vitro PAM EC50s being derived from an arbitrarily selected EC20 concentration of ACh as a subthreshold value.

A further data set in a line: Hepatocyte MET ID, rat. The format is in vitro ADME. The conditions noted are these: 4-h incubation. An excerpt: (§1) More concerning were the results generated via outsourced multispecies hepatocyte MET ID, which were drastically different than the liver S9MET ID. The extent of metabolism for VU6007496 with rat, dog, monkey and human hepatocytes was 64.7, 51.5, 63.9 and 99.5%, respectively (Figure 8). […] In human hepatocytes, PAM 11 was metabolized primarily to Metabolite A (24), the result of oxidative N-demethylation of the southern pyrazole. The other minor metabolites were oxidation on the tetrahydropyran moiety and included ring opening (Metabolite F, 25).[21]

For data set [3], the system named is Nicotinic Acetylcholine α3β4. Description: Eurofins radioligand binding. Set-up: species or system Human. The conditions noted are these: specific binding.
The test system of a further data set is Glucocorticoid. The data set is described as follows: Eurofins radioligand binding. Set-up: species or system Human. The following applies: specific binding.
A further data set relates to Serotonin (5-HT3). Description: Eurofins radioligand binding. More on the design: species or system Human. The conditions noted are these: specific binding.
A short description of another data set: Hepatocyte MET ID, human. The format is in vitro ADME. The following applies: 4-h incubation.
Description: as §1

A further data set deals with Calcium Channel N-Type. Description: Eurofins radioligand binding. More on the design: species or system Rat. The following applies: specific binding.
Another data set relates to Dopamine D2S. Description: Eurofins radioligand binding. Set-up: species or system Human. The following applies: specific binding.
The next data set relates to Adrenergic α1B. The data set is described as follows: Eurofins radioligand binding. More on the design: species or system Human. The following applies: specific binding.
The subject of another data set is Opiate δ1 (OP1, DOP). The data set is described as follows: Eurofins radioligand binding. More on the design: species or system Human. The following applies: specific binding.

Sequence of Glutamate, NMDA, Glycine (P35439 394-800 limits assumed): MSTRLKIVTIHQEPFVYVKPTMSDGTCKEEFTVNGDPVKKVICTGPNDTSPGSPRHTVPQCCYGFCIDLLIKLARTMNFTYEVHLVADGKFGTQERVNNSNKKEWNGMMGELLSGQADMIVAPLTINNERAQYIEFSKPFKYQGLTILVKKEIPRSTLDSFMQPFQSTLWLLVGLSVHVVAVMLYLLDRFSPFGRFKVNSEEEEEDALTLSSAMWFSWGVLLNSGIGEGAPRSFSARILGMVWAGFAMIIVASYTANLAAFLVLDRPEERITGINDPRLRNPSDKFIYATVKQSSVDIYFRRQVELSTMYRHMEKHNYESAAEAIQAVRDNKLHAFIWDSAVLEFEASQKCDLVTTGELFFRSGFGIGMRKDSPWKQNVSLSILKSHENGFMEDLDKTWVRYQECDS

On to `Cn1ccc(-c2ccc(Cc3cc(C(=O)NC4CCOCC4)nc4ccn(C)c34)cc2)n1` [compound 11], for which the “% Inhibition at 10 µM” value was 3% with Endothelin ETA; -6% in the data set on Adrenergic α1D; 5% in the data set with Dopamine D1; 28% in the data set with Histamine H2; -1% in the data set with Adrenergic α1A; 8% in the data set on Tachykinin NK1. Also, the “% Inhibition at 10 µM” value with Neuropeptide Y Y1 is listed as -10%; in data set [3], 6%; with Glucocorticoid, 5%; in the data set with Serotonin (5-HT3), -3%; in the data set on Calcium Channel N-Type it was 8%; in the data set on Dopamine D2S it was 5%. Also, the “% Inhibition at 10 µM” value in the data set with Adrenergic α1B is on record as 14%; with Opiate δ1 (OP1, DOP), 5%. The “extent of metabolism, rat liver S9” value in the data set “MET ID in rat liver S9” was 36.8%. The compound further displayed an inhibition at 10 µM on Glutamate, NMDA, Glycine of 0%. Besides, in data set [1], the “radioligand displacement, Lead Profiling Screen” value is recorded as under 50%. Further, the total brain concentration in data set [2] stood at 990 nM. In data set [2], this compound came in with an unbound brain concentration of 39.8 nM. The “extent of metabolism, rat hepatocytes” value in “Hepatocyte MET ID, rat” came out at 64.7%. In the data set “Hepatocyte MET ID, human”, the “extent of metabolism, human hepatocytes” value is on record as 99.5%.

The % Inhibition is the relative decrease from the control value, in per cent. In general, inhibition refers to the change of the read-out against control, counted positive when it falls. A lower inhibition goes with a response near the control.
